# Assay results taken from patent publication US12516049B2, “Sulfonylurea ring substituted monocyclic β-lactam antibiotics” (priority 2019, dated 2026).
# Experiments:
# Type in all cases: cell-based
# [1] = tested on: E.coli 020028; assay: MIC, two-fold agar dilution, clinical isolate; conditions: Escherichia coli, single drug, average of three tests
# Protocol: (§1) The minimum inhibitory concentration (MIC) of the compound and combination with β-lactamase (MBLs) inhibitors against clinically isolated carbapenem-resistant enterobacteriaceae was determined by the two-fold agar dilution method to determine the activity of the compound to be tested against strains producing MBLs. Antibiotics and enzyme inhibitors were weighed separately and dissolved in sterile ultrapure water or dimethyl sulfoxide to prepare mother liquor, MHA medium was prepared, pH was adjusted to 7.2-7.4, and it was sterilized at 121° C. for 15 minutes and placed in a 55° C. water bath for heat preservation. The mother liquor was diluted to the concentration to be tested by double dilution method, an inoculum liquid was prepared by direct bacterial suspension method, 1 mL of the prepared bacteria solution was withdrawn and putted into the inoculation tube, and a positioning needle and an inoculation needle were installed. A bacterial multi-point inoculator was started for inoculation. After the bacterial solution was absorbed by the agar, the plate was placed upside down in an incubator at 37° C. for 16-20 hours, and the results were observed. The average of three tests was taken.
# [2] = tested on: E.coli 020031; assay: MIC, two-fold agar dilution, clinical isolate; conditions: Escherichia coli, single drug, average of three tests
# Protocol: as §1
# [3] = tested on: E.coli 020033; assay: MIC, two-fold agar dilution, clinical isolate; conditions: Escherichia coli, single drug, average of three tests
# Protocol: as §1
# [4] = tested on: E.coli 115103; assay: MIC, two-fold agar dilution, clinical isolate; conditions: Escherichia coli, 115103
# Protocol: as §1
# [5] = tested on: E.coli BAA-2452; assay: MIC, two-fold agar dilution, clinical isolate; conditions: Escherichia coli, BAA2452; E.coli BAA-2452; single drug; average of three tests; read-out: MIC
# Protocol: as §1
# [6] = tested on: E.coli C1569; assay: MIC, two-fold agar dilution, clinical isolate; conditions: Escherichia coli, single drug, average of three tests
# Protocol: as §1
# [7] = tested on: E.coli CRE18; assay: MIC, two-fold agar dilution, clinical isolate; conditions: Escherichia coli, CRE18
# Protocol: as §1
# [8] = tested on: E.coli CRE21; assay: MIC, two-fold agar dilution, clinical isolate; conditions: Escherichia coli, CRE21
# Protocol: as §1
# [9] = tested on: E.coli CRE23; assay: MIC, two-fold agar dilution, clinical isolate; conditions: Escherichia coli, CRE23
# Protocol: as §1
# [10] = tested on: E.coli CRE28; assay: MIC, two-fold agar dilution, clinical isolate; conditions: Escherichia coli, CRE28
# Protocol: as §1
# [11] = tested on: K.p 090339; assay: MIC, two-fold agar dilution, clinical isolate; conditions: K.p 090339; single drug; average of three tests; read-out: MIC
# Protocol: as §1
# [12] = tested on: K.p 115004; assay: MIC, two-fold agar dilution, clinical isolate; conditions: K.p 115004; single drug; average of three tests; read-out: MIC
# Protocol: as §1
# [13] = tested on: K.p 11544; assay: MIC, two-fold agar dilution, clinical isolate
# Protocol: as §1
# [14] = tested on: K.p 13249; assay: MIC, two-fold agar dilution, clinical isolate
# Protocol: as §1
# [15] = tested on: K.p 6777; assay: MIC, two-fold agar dilution, clinical isolate
# Protocol: as §1
# [16] = tested on: K.p BAA-2470; assay: MIC, two-fold agar dilution, clinical isolate
# Protocol: as §1
# [17] = tested on: K.p C904; assay: MIC, two-fold agar dilution, clinical isolate
# Protocol: as §1
# [18] = tested on: K.p CRE11; assay: MIC, two-fold agar dilution, clinical isolate
# Protocol: as §1
# [19] = tested on: K.p CRE12; assay: MIC, two-fold agar dilution, clinical isolate; conditions: single drug, average of three tests
# Protocol: as §1
# [20] = tested on: K.p CRE16; assay: MIC, two-fold agar dilution, clinical isolate; conditions: single drug, average of three tests
# Protocol: as §1
# [21] = tested on: K.p HX37; assay: MIC, two-fold agar dilution, clinical isolate
# Protocol: as §1
# [22] = tested on: K.p HX77; assay: MIC, two-fold agar dilution, clinical isolate; conditions: single drug, average of three tests
# Protocol: as §1
# [23] = tested on: Morganella morganii C1274; assay: MIC, two-fold agar dilution, clinical isolate; conditions: Morganella morganii C1274; single drug; average of three tests; read-out: MIC
# Protocol: as §1
# [24] = tested on: E.coli 115101; assay: MIC, two-fold agar dilution, clinical isolate; conditions: Escherichia coli, 115101
# Protocol: as §1, with “Antibiotics and enzyme inhibitors were weighed separately and dissolved in sterile ultrapure water or dimethyl sulfoxide to prepare mother liquor, MHA medium was prepared, pH was adjusted to 7.2-7.4, and it was sterilized at 121° C. for 15 minutes and placed in a 55° C. water bath for heat preservation.” left out
# [25] = tested on: E.coli 115105; assay: MIC, two-fold agar dilution, clinical isolate; conditions: Escherichia coli, single drug, average of three tests
# Protocol: as §1, with “Antibiotics and enzyme inhibitors were weighed separately and dissolved in sterile ultrapure water or dimethyl sulfoxide to prepare mother liquor, MHA medium was prepared, pH was adjusted to 7.2-7.4, and it was sterilized at 121° C. for 15 minutes and placed in a 55° C. water bath for heat preservation.” left out
# [26] = tested on: K.p HX30; assay: MIC, two-fold agar dilution, clinical isolate
# Protocol: as §1, with “Antibiotics and enzyme inhibitors were weighed separately and dissolved in sterile ultrapure water or dimethyl sulfoxide to prepare mother liquor, MHA medium was prepared, pH was adjusted to 7.2-7.4, and it was sterilized at 121° C. for 15 minutes and placed in a 55° C. water bath for heat preservation.” left out
# [27] = tested on: Enterobacter cloacae ATCC BAA-1143 (AmpC); assay: MIC, micro-liquid dilution (CLSI); conditions: ATCCBAA1143, E. cloacae ATCC BAA-1143, Class C (AmpC), 20-24 h, 37° C.
# Protocol: (§2) Three strains of Klebsiella pneumonia, ATCC BAA-205 (TEM-1/SHV-1/SHV-12), ATCC BAA-1705 (KPC-2), ATCC BAA-2470 (NDM-1), Enterobacter cloacae ATCC BAA-1143 (AmpC), two strains of Escherichia coli ATCC BAA-2523 (OXA-48), ATCC 25922 were used to determine the minimum inhibitory concentration (MIC) of each of the compounds by micro-liquid dilution method according to the Institute of Clinical and Laboratory Standard (CLSI) requirements. […]. The plate was placed upside down at 37° C. and the MIC value was read after 20-24 h of incubation, and the lowest drug concentration that inhibited the growth of bacteria was set as MIC. Colony-Forming Units (CFU) refer to the total number of bacterial colonies per unit volume.
# [28] = tested on: Escherichia coli ATCC 25922; assay: MIC, micro-liquid dilution (CLSI); conditions: ATCC25922, E. coli ATCC 25922, 20-24 h, 37° C.
# Protocol: as §2
# [29] = tested on: Escherichia coli ATCC BAA-2523 (OXA-48); assay: MIC, micro-liquid dilution (CLSI); conditions: ATCCBAA2523, E. coli ATCC BAA-2523, Class D (OXA-48), 20-24 h, 37° C., read-out: MIC
# Protocol: as §2
# [30] = tested on: Klebsiella pneumonia ATCC BAA-1705 (KPC-2); assay: MIC, micro-liquid dilution (CLSI); conditions: Klebsiella pneumoniae, ATCCBAA1705; K. pneumonia ATCC BAA-1705, Class A (KPC-2); 20-24 h, 37° C.
# Protocol: as §2
# [31] = tested on: Klebsiella pneumonia ATCC BAA-205 (TEM-1/SHV-1/SHV-12); assay: MIC, micro-liquid dilution (CLSI); conditions: Klebsiella pneumoniae, ATCCBAA205; K. pneumonia ATCC BAA-205, Class A (TEM-1/SHV-1/SHV-12); 20-24 h, 37° C.
# Protocol: as §2
# [32] = tested on: Klebsiella pneumonia ATCC BAA-2470 (NDM-1); assay: MIC, micro-liquid dilution (CLSI); conditions: Klebsiella pneumoniae, ATCCBAA2470; K. pneumonia ATCC BAA-2470, Class B (NDM-1); 20-24 h, 37° C.
# Protocol: as §2
smiles,measurement,setting,value
C[C@H]1[C@H](NC(=O)/C(=N\OC(C)(C)C(=O)O)c2csc(N)n2)C(=O)N1S(=O)(=O)O [Aztreonam],MIC,[1],16 µg/mL
same,MIC,[2],4 µg/mL
same,MIC,[3],32 µg/mL
same,MIC,[4],128 µg/mL
same,MIC,[5],16 µg/mL
same,MIC,[6],1 µg/mL
same,MIC,[7],> 128 µg/mL
same,MIC,[8],> 128 µg/mL
same,MIC,[9],> 128 µg/mL
same,MIC,[10],> 128 µg/mL
same,MIC,[11],64 µg/mL
same,MIC,[12],64 µg/mL
same,MIC,[13],> 128 µg/mL
same,MIC,[14],> 128 µg/mL
same,MIC,[15],128 µg/mL
same,MIC,[16],> 128 µg/mL
same,MIC,[17],> 128 µg/mL
same,MIC,[18],128 µg/mL
same,MIC,[19],4 µg/mL
same,MIC,[20],64 µg/mL
same,MIC,[21],> 128 µg/mL
same,MIC,[22],16 µg/mL
same,MIC,[23],4 µg/mL
same,MIC,[24],> 128 µg/mL
same,MIC,[25],16 µg/mL
same,MIC,[26],> 128 µg/mL
Nc1nc(/C(=N/OC2(C(=O)O)CC2)C(=O)N[C@@H]2C(=O)N(S(=O)(=O)O)[C@@H]2CN2CCCNS2(=O)=O)cs1 [Compound 2],MIC,[27],2 µg/mL
same,MIC,[28],4 µg/mL
same,MIC,[29],1 µg/mL
same,MIC,[30],2 µg/mL
same,MIC,[31],1 µg/mL
same,MIC,[32],1 µg/mL
CC(=O)OC[C@@H]1CN(C[C@@H]2[C@H](NC(=O)/C(=N\OC3(C(=O)O)CC3)c3csc(N)n3)C(=O)N2S(=O)(=O)O)S(=O)(=O)N1 [Compound 3],MIC,[27],2 µg/mL
same,MIC,[28],4 µg/mL
same,MIC,[29],0.25 µg/mL
same,MIC,[30],2 µg/mL
same,MIC,[31],2 µg/mL
same,MIC,[32],1 µg/mL
